Data: publication PMC11353420, “Anti-Inflammatory, Cytotoxic, and Genotoxic Effects of Soybean Oligopeptides Conjugated with Mannose” (Foods, 2024)

What was measured:
[1] = tested on: Salmonella typhimurium strain TA98; assay: Salmonella mutation assay (Ames test), TA98; format: cell-based
Protocol: (§1) Overnight bacterial cultures were mixed with various doses of test compounds with (+S9) or without (−S9) and incubated at 37 °C for 20 min. The top agar was added and then poured onto a plate of minimal glucose agar. The plates were incubated at 37 °C for 48 h. The number of revertant colonies was counted and the mutagenic index (MI) was calculated. 2-aminoanthracene (2-AA) and 2-(2-furyl)-3-(5-nitro-2-furyl)-acrylamide (AF-2) were used as positive mutagens in the presence and absence of S9.

[2] = SRB cytotoxicity assay, 3T3-L1 pre-adipocyte; format: cell-based, murine; settings: mouse, 3T3-L1 pre-adipocytes; 3T3-L1 Pre-adipocyte, 48 h, SRB
Excerpt: (§2) HEK293 (Human embryonic kidney cell line), HepG2 (Human liver carcinoma cell line), LX-2 (Human hepatic stellate cell line), and 3T3-L1 (Murine preadipocyte cell line) cells were obtained from the American Type Culture Collection (ATCC), Bethesda, MD, USA.

3T3-L1 Pre-adipocyte = assay: SRB cytotoxicity assay, 3T3-L1 pre-adipocyte; format: cell-based, murine; settings: 48 h
Excerpt: as §2

[3] = tested on: Salmonella typhimurium strain TA100; assay: Salmonella mutation assay (Ames test), TA100; format: cell-based
Protocol: as §1

[4] = tested on: NO production in LPS-treated RAW 264.7 macrophages; assay: LPS-induced nitric oxide (NO)/nitrite production, Griess reaction; format: cell-based, murine; settings: 100, 200, 400 µg/mL pretreatment 1 h, LPS 1 µg/mL 24 h
Protocol: To screen the anti-inflammation ability of the compounds, the nitrite level in the cultured medium of the treated cells was determined by the Griess reaction. RAW 264.7 macrophage cells were pretreated with various concentrations of the oligopeptide and its conjugated forms (100, 200, 400 µg/mL) for an hour and then incubated with LPS (1 µg/mL) for further 24 h at 37 °C in a 5% CO2 humidified atmosphere. The culture supernatant was collected for the Griess reagent assay as previous described. The NO production was calculated by comparison with LPS-treated controls.

Q: Which “His^+ Revertant Colonies per Plate” value ([1]; TA98, +S9, 0.04 mg per plate) does the source give for `OC[C@H]1OC(O)[C@@H](O)[C@@H](O)[C@@H]1O` (stereo partly drawn) [Man, D-mannose] here?
A: 37.7 ± 5.7

Q: What about the “His^+ Revertant Colonies per Plate” value ([1]; TA98, +S9, 0.2 mg per plate) of the same compound?
A: 37.8 ± 3.8

Q: And the “His^+ Revertant Colonies per Plate” value ([1]; TA98, +S9, 1 mg per plate)?
A: 36.5 ± 7.5

Q: What about the “His^+ Revertant Colonies per Plate” value ([1]; TA98, +S9, 5 mg per plate) of the same compound?
A: 38.5 ± 7.8

Q: And the mutagenicity ([1]; TA98, presence and absence of the S9 mix)?
A: did not cause any mutagenicity

Q: What about the “His^+ Revertant Colonies per Plate” value ([1]; TA98, −S9, 0.04 mg per plate) of the same compound?
A: 30.5 ± 2.5

Q: What about the “His^+ Revertant Colonies per Plate” value ([1]; TA98, −S9, 0.2 mg per plate) of the same compound?
A: 30.8 ± 4.8

Q: And the “His^+ Revertant Colonies per Plate” value ([1]; TA98, −S9, 1 mg per plate)?
A: 27.8 ± 6.5

Q: What about the “His^+ Revertant Colonies per Plate” value ([1]; TA98, −S9, 5 mg per plate) of the same compound?
A: 28.7 ± 6.0

Q: And the IC20 at 48 h [2]?
A: > 1000 µg/mL

Q: And the IC50 (3T3-L1 Pre-adipocyte; Mus musculus, 3T3-L1 Pre-adipocyte, SRB, read-out: IC50)?
A: > 1000 µg/mL

Q: And the toxicity to cells (3T3-L1 Pre-adipocyte; pre-3T3-L1, up to 1000 µg/mL)?
A: not toxic

Q: What about the “His^+ Revertant Colonies per Plate” value ([3]; TA100, +S9, 0.04 mg per plate) of the same compound?
A: 127.5 ± 2.5

Q: And the “His^+ Revertant Colonies per Plate” value ([3]; TA100, +S9, 0.2 mg per plate)?
A: 140.3 ± 2.3

Q: What about the “His^+ Revertant Colonies per Plate” value ([3]; TA100, +S9, 1 mg per plate) of the same compound?
A: 139.0 ± 0.7

Q: And the “His^+ Revertant Colonies per Plate” value ([3]; TA100, +S9, 5 mg per plate)?
A: 138.5 ± 4.2

Q: What about the mutagenicity ([3]; TA100, presence and absence of the S9 mix) of the same compound?
A: did not cause any mutagenicity

Q: And the “His^+ Revertant Colonies per Plate” value ([3]; TA100, −S9, 0.04 mg per plate)?
A: 135.2 ± 5.2

Q: What about the “His^+ Revertant Colonies per Plate” value ([3]; TA100, −S9, 0.2 mg per plate) of the same compound?
A: 137.5 ± 4.5

Q: What about the “His^+ Revertant Colonies per Plate” value ([3]; TA100, −S9, 1 mg per plate) of the same compound?
A: 135.2 ± 4.5

Q: And the “His^+ Revertant Colonies per Plate” value ([3]; TA100, −S9, 5 mg per plate)?
A: 129.7 ± 4.7

Q: And the “inhibition of LPS-induced NO production” value [4]?
A: did not inhibit
